# Assay results taken from patent US3980794A, “Method for promoting growth of poultry with 3-(5-nitro-2-imidazolyl)pyrazoles” (Eli Lilly and Company, priority 1975, dated 1976).
# Where two headings read alike, the source gives them in different places.
# Tests used:
# [1] = tested on: Fusobacterium necrophorum 13859; experiment: Susceptibility of anaerobic bacteria, agar dilution; type: cell-based; conditions: read-out: 24 Hr. Minimum Inhibitory Concentration
# [2] = tested on: Clostridium septicum 1128; experiment: as above; type: cell-based; conditions: 24 h, read-out: 24 Hr. Minimum Inhibitory Concentration
# [3] = tested on: Clostridium septicum bovine; experiment: as above; type: cell-based; conditions: 24 h, read-out: 24 Hr. Minimum Inhibitory Concentration
# [4] = tested on: Bacteroides fragilis sp. fragilis 1936B; experiment: as above; type: cell-based; conditions: 24 h, read-out: 24 Hr. Minimum Inhibitory Concentration
# [5] = tested on: Clostridium perfringens 81; experiment: microbe, parasite or virus in culture; type: cell-based; conditions: Clostridium perfringens, 81, 24 h, read-out: 24 Hr. Minimum Inhibitory Concentration
# [6] = tested on: Propionibacterium acnes 44; experiment: Susceptibility of anaerobic bacteria, agar dilution; type: cell-based; conditions: Cutibacterium acnes, 24 h; Propionibacterium acnes 44; read-out: 24 Hr. Minimum Inhibitory Concentration
# [7] = tested on: Veillonella alcalescens 1; experiment: as above; type: cell-based; conditions: read-out: 24 Hr. Minimum Inhibitory Concentration
# [8] = tested on: Clostridium innocuum 1373; experiment: as above; type: cell-based; conditions: read-out: 24 Hr. Minimum Inhibitory Concentration
# Actinomyces bovis 13684 = experiment: as above; type: cell-based; conditions: read-out: 24 Hr. Minimum Inhibitory Concentration
# P. multocida = experiment: Oral activity against P. multocida in turkeys (Experiment 5B); type: in vivo; conditions: 100 g./ton in feed
# [9] = tested on: Pasteurella multocida, bovine strain; experiment: Oral activity against Pasteurella multocida, bovine strain, in mice (Experiment 3); type: in vivo, White Swiss mice; conditions: 100 g. per ton of feed; LD50 of control minus LD50 of treated group (log10 dilutions)
# Experimental: White Swiss female mice weighing 15-20 g. each were used in the test. Seven groups of ten mice each were treated at a level of 100 g. of test compound per ton of feed. The animals received the medication in the feed for 2 days prior to challenge and for 7 days post challenge. Similar groups of mice on a ration without the antimicrobial agent were used as controls. Both the treated mice and the control groups of mice were challenged with log10 dilutions ranging from 10^-^2 through 10^-^8 of a 16 to 20-hour culture of Pasteurella multocida, bovine strain, at 0.1 ml. per mouse, administered subcutaneously. […] By subtracting the LD50 of each of the treated groups from that of the control group of mice, there was obtained a figure called the protective index.
# In the chart, column 1 lists the test compound, identified in the same manner as set forth in Experiment 1; and column 2 lists the protective index.
# [10] = Fusobacterium necrophorum, 13859, 24 h
# [11] = [Clostridium] innocuum, 1373, 24 h
# [12] = 24 h, Fusobacterium necrophorum 13859
# [13] = Bacteroides fragilis sp. fragilis 1936B
# [14] = Veillonella parvula, 24 h, Veillonella alcalescens 1
# [15] = 24 h, Clostridium innocuum 1373
Compound,"MIC [1, 10] [µg/mL]",MIC [2] [µg/mL],MIC [3] [µg/mL],MIC ([4]; Bacteroides fragilis) [µg/mL],MIC [5] [µg/mL],MIC [6] [µg/mL],"MIC ([7]; Veillonella parvula, 1, 24 h) [µg/mL]","MIC [8, 11] [µg/mL]","MIC (Actinomyces bovis 13684; Actinomyces bovis, 13684, 24 h) [µg/mL]","MIC [1, 12] [µg/mL]","MIC [4, 13] [µg/mL]","MIC [7, 14] [µg/mL]","MIC [8, 15] [µg/mL]","MIC (Actinomyces bovis 13684; 24 h, Actinomyces bovis 13684) [µg/mL]",Culture Isolation P. multocida (P. multocida),Survival Ratio (P. multocida),Protective Index [9]
"Cn1nc(-c2ncc([N+](=O)[O-])n2C)c(C(N)=O)c1N [Compound 2, 5-Amino-1-methyl-3-(1-methyl-5-nitro-2-imidazolyl)pyrazole-4-carboxamide]",< 0.125,< 0.125,< 0.125,< 0.125,< 0.125,0.5,< 0.125,< 0.125,< 0.125,–,–,–,–,–,–,–,–
"C=CCOC=Nc1c(C#N)c(-c2ncc([N+](=O)[O-])n2C)nn1C [Compound 13A, Allyl N-[4-cyano-1-methyl-3-(1-methyl-5-nitro-2-imidazolyl)pyrazol-5-yl]formimidate]",–,0.5,0.5,–,1,> 128,–,–,–,< 0.125,2,< 0.125,1,0.5,–,–,–
"CCCCC(CC)COC=Nc1c(C#N)c(-c2ncc([N+](=O)[O-])n2C)nn1C (stereo not drawn) [Compound 13D, 2-Ethylhexyl N-[4-cyano-1-methyl-3-(1-methyl-5-nitro-2-imidazolyl)pyrazol-5-yl]formimidate]",–,2,4,–,1,16,–,–,–,< 0.125,0.5,0.25,1,1,–,–,–
"CC(=O)Nc1c(C(=O)O)c(-c2ncc([N+](=O)[O-])n2C)nn1C [Compound 12, 5-acetamido-1-methyl-3-(1-methyl-5-nitro-2-imidazolyl)pyrazole-4-carboxylic acid]",–,4,8,–,8,> 32,–,–,–,< 0.125,16,0.5,8,0.5,–,–,–
"COC=Nc1c(C#N)c(-c2ncc([N+](=O)[O-])n2C)nn1C [Compound 6, Methyl N-[4-cyano-1-methyl-3-(1-methyl-5-nitro-2-imidazolyl)pyrazol-5-yl]formimidate]",< 0.125,< 0.125,< 0.125,< 0.125,< 0.125,> 32,< 0.125,< 0.125,< 0.125,–,–,–,–,–,0/5,5/5,4.3
"CCCCOC=Nc1c(C#N)c(-c2ncc([N+](=O)[O-])n2C)nn1C [Compound 7, Butyl N-[4-Cyano-1-methyl-3-(1-methyl-5-nitro-2-imidazolyl)-pyrazol-5-yl]formimidate]",< 0.125,< 0.125,< 0.125,< 0.125,< 0.125,> 32,< 0.125,< 0.125,< 0.125,–,–,–,–,–,0/5,5/5,3.4
"Cn1nc(-c2ncc([N+](=O)[O-])n2C)c(C#N)c1N [Compound 1, 5-Amino-1-methyl-3-(1-methyl-5-nitro-2-imidazolyl)pyrazole-4-carbonitrile]",< 0.125,< 0.125,< 0.125,< 0.125,< 0.125,> 32,< 0.125,< 0.125,< 0.125,–,–,–,–,–,0/5,5/5,> 5.6
